One assay has as its target human mTOR enzyme (Homo sapiens, UniProt P42345). In words: HTRF mTOR enzyme (kinase) assay. Type of assay: biochemical. The settings on record: 5 μM ATP, 0.2 μM GST-S6K, read-out: hMTOR IC50. For orientation: Time-resolved FRET reads energy transfer from a long-lived donor to a nearby acceptor.
The subject of assay [1] is mTORC2 activity: phosphorylated AKT Ser473 (pAKT S473) in PC3 cells. The assay can be described thus: mTOR target engagement assay, immunofluorescent cell-based, mTORC2 readout. The following applies: 90 min treatment. Put shortly: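 Read-out is immunofluorescence intensity, normalized to DMSO-only wells and fitted to a sigmoidal Hill equation for IC50. The mTORC1 arm probes phospho-4E-BP1 Thr37/46 and the mTORC2 arm phospho-AKT Ser473.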

For assay [2], the system named is mTORC1 activity: phosphorylated 4E-BP1 Thr37/46 (p4E-BP1 Thr37/46) in PC3 cells. The assay can be described thus: mTOR target engagement assay, immunofluorescent cell-based, mTORC1 readout. The settings on record: 90 min treatment, read-out: P4EBP1 IC50. How it is done: The target engagement of mTOR kinase inhibitors was evaluated using an immunofluorescent cell-based assay. In this assay, inhibition of mTORC1 activity was measured by the reduction in the level of phosphorylated 4E-BP1Thr37/46 (p4E-BP1 Thr37/46), and inhibition of mTORC2 activity was measured by the reduction of phosphorylated AKTSer473 (pAKT S473).
PC3 cells (prostate tumor cell-line that contains a mutation in the tumor suppressor PTEN, that promotes the phosphorylation and activation of AKT and 4E-BP1) were used in the immunofluorescence assay. PC3 cells were seeded on 384 well plates (black clear bottom, Matrix #4332) overnight. PC3 cells were then treated with 40 μl of the serially diluted test compounds (in 5% fetal bovine serum, F12 medium containing 0.25% DMSO) for ninety minutes at 37° C. The test compound solution was removed, and the plates were washed gently two times with 25 μl phosphate buffered saline (PBS). The cells were fixed by adding 25 μl of Prefer reagent (from Anatech LTD, Cat#414, a glyoxal fixative for fixing proteins within a cell) for sixty minutes followed by three washes with PBS. 5% Goat serum in PBS/0.3% Triton was used to block non-specific binding (60 minutes).
The primary antibodies targeting pAKT S473 and p4E-BP1 Thr37/46 were diluted into PBS/0.3% Triton and incubated with the cells overnight at 4° C. The antibodies targeting pAKTS473 (Cat#4085, Cell signaling) and p4E-BP1 Thr37/46 (Cat#2855, Cell signaling) were used at a 1:100 dilution. Plates were washed three times with PBS/0.1% Tween 20 before adding the secondary antibody at a 1:200 dilution. (goat anti-rabbit containing a fluorescent label, Alexa Fluor 488, Cat#A11008, Invitrogen) in PBS/0.3% Triton for 60 minutes.
Finally, the plates were washed three times with PBS/0.1% Tween 20 and the fluorescent intensity was read using an Analyst HT from Molecular Devices. The fluorescent intensity values from the serially diluted compound treatment group were analyzed using the Xlfit 4 program ([…]) (Formula 205: Y=Bottom+(Top-Bottom)/(1+(IC50/X)^Hillslope) to generate the IC50 value. Where Top is the maximum signal without Compound (+DMSO only) and Bottom represents maximum inhibition. Y is the fluorescence at some compound concentration. The control used to determine the fluorescent intensities for 100% pAKT S473 or 100% phosphorylated p4E-BP1 Thr37/46 were measured from untreated wells that contained only DMSO, instead of test compound.

Setting [3] is: Homo sapiens, PC-3, 1.5 h, rated class.

Where two headings read alike, the source gives them in different places.

Chain of human mTOR enzyme (P42345 1360-2549 limits assumed): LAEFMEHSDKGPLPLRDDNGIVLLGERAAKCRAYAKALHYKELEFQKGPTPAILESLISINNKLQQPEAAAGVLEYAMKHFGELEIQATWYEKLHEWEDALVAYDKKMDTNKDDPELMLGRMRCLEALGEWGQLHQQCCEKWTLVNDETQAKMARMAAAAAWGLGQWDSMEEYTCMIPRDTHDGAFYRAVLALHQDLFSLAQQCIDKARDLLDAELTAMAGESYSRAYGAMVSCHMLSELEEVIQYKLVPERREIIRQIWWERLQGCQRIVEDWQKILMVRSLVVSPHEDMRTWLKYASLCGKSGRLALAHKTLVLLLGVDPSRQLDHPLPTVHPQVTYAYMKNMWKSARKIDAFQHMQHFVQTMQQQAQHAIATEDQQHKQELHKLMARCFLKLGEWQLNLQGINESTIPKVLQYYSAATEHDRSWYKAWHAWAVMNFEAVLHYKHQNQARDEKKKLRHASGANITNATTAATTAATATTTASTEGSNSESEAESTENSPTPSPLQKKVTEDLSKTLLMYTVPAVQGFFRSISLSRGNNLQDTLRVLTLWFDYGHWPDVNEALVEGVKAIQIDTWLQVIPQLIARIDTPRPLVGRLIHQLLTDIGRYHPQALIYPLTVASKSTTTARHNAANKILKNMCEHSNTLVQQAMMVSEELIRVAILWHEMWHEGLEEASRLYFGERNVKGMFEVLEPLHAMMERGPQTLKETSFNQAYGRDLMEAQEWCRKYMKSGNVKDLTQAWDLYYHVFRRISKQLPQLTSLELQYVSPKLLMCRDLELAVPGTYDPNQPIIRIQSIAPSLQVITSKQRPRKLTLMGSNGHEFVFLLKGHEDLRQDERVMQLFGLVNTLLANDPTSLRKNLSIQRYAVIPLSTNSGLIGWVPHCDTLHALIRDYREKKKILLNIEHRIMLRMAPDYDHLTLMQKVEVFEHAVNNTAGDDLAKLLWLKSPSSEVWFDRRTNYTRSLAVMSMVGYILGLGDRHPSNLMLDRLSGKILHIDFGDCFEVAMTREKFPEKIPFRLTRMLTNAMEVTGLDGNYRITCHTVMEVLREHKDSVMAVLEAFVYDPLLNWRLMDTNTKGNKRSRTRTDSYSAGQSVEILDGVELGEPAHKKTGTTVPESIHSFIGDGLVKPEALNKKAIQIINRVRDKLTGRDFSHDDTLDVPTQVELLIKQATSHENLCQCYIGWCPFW

For the compound `CC(=O)c1c(C2CCC(O)(CO)CC2)nc2c(-c3ccc(-c4cscn4)nc3)cnn2c1N` (single isomer, unassigned) [Compound 144, 1-(7-amino-5-(4-hydroxy-4-(hydroxymethyl)-cyclohexyl)-3-(6-(thiazol-4-yl)pyridin-3-yl)pyrazolo[1,5-a]pyrimidin-6-yl)ethanone], the IC50 at human mTOR enzyme (rated class) is 1 to 100 nM; in assay [1] (setting [3]) it was 100 to 1000 nM; in assay [2] (setting [3]), 100 to 1000 nM.
For `C[C@]1(C(=O)O)CC[C@H](c2nc3c(-c4ccc(-c5ccccc5)nc4)cnn3c(N)c2Br)CC1` [Compound 1, (1R,4R)-4-(7-amino-6-bromo-3-(6-phenylpyridin-3-yl)pyrazolo[1,5-a]pyrimidin-5-yl)-1-methylcyclohexanecarboxylic acid], the values for the IC50 (at human mTOR enzyme (numeric value); in assay [1] (numeric value); in assay [2] (numeric value)) were 1.33 nM, 275 nM and 850 nM, respectively.
Consider `CC(=O)c1c(N)n2ncc(-c3ccc(-c4ccccc4)nc3)c2nc1[C@H]1CC[C@](C)(C(=O)O)CC1` [Compound 15, (1R,4R)-4-(6-acetyl-7-amino-3-(6-phenylpyridin-3-yl)pyrazolo[1,5-a]pyrimidin-5-yl)-1-methylcyclohexanecarboxylic acid], for which the concentration for half-maximal inhibition (IC50) at human mTOR enzyme (rated class) fell in the range of 1 to 100 nM; in assay [1] (setting [3]), 100 to 1000 nM; in assay [2] (setting [3]), 100 to 1000 nM.
With `CC(=O)c1c(C2CCC(O)(CO)CC2)nc2c(-c3ccc(-c4ccccc4)nc3)cnn2c1N` (stereo not shown) [Compound 138, 1-(7-amino-5-(4-hydroxy-4-(hydroxymethyl)cyclohexyl)-3-(6-phenylpyridin-3-yl)pyrazolo[1,5-a]pyrimidin-6-yl)ethanone], the 50% inhibitory concentration (IC50) on human mTOR enzyme (rated class) lay in the range of 1 to 100 nM; in assay [1] (setting [3]), 100 to 1000 nM.
With `CC(=O)c1c(C2CCC(O)(CO)CC2)nc2c(-c3cnn(-c4ccccc4)c3)cnn2c1N` (stereo not shown) [Compound 141, 1-(7-amino-5-(4-hydroxy-4-(hydroxymethyl)cyclohexyl)-3-(1-phenyl-1H-pyrazol-4-yl)pyrazolo[1,5-a]pyrimidin-6-yl)ethanone], the IC50 (on human mTOR enzyme (rated class); in assay [1] (setting [3])) was 1 to 100 nM each time.
Turning to `CC(=O)c1c(C2CCC(O)(CO)CC2)nc2c(-c3cnc4ccc(F)cc4c3)cnn2c1N` (stereo not shown) [Compound 142, 1-(7-amino-3-(6-fluoroquinolin-3-yl)-5-(4-hydroxy-4-(hydroxymethyl)-cyclohexyl)-pyrazolo-[1,5-a]pyrimidin-6-yl)ethanone], the half-inhibitory concentration (IC50) (on human mTOR enzyme (rated class); in assay [1] (setting [3])) was 1 to 100 nM each time.
For `CC(=O)c1c(C2CCC(O)(CO)CC2)nc2c(-c3ccc(-c4cccnc4)nc3)cnn2c1N` (stereo not shown) [Compound 143, 1-(3-(2,3′-bipyridin-5-yl)-7-amino-5-(4-hydroxy-4-(hydroxymethyl)-cyclohexyl)-pyrazolo-[1,5-a]pyrimidin-6-yl)ethanone], the IC50 lay within 1 to 100 nM at human mTOR enzyme (rated class) and 1000 to 2000 nM in assay [1] (setting [3]).
Consider `CC(=O)c1c(C2CCC(O)(CO)CC2)nc2c(-c3ccc(-c4cnn(C)c4)nc3)cnn2c1N` (stereo not shown) [Compound 145, 1-(7-amino-5-(4-hydroxy-4-(hydroxymethyl)-cyclohexyl)-3-(6-(1-methyl-1H-pyrazol-4-yl)pyridin-3-yl)pyrazolo[1,5-a]pyrimidin-6-yl)ethanone], for which the IC50 fell in the range of 1 to 100 nM on human mTOR enzyme (rated class) and 1000 to 2000 nM in assay [1] (setting [3]).
The matching figures for `CC(=O)c1c(N)n2ncc(-c3cnn(-c4cnn(C)c4)c3)c2nc1[C@H]1CC[C@@](O)(CO)CC1` [Compound 148, 1-(7-amino-5-((1R,4R)-4-hydroxy-4-(hydroxymethyl)cyclohexyl)-3-(1′-methyl-1′H-1,4′-bipyrazol-4-yl)pyrazolo[1,5-a]pyrimidin-6-yl)ethanone]: 1 to 100 nM and 2000 to 5000 nM.
The matching figures for `COC(=O)c1cc(-c2ccc(-c3cnn4c(N)c(C(C)=O)c([C@H]5CC[C@@](O)(CO)CC5)nc34)cn2)ccc1OC` [Compound 153, methyl 5-(5-(6-acetyl-7-amino-5-((1R,4R)-4-hydroxy-4-(hydroxymethyl)-cyclohexyl)-pyrazolo-[1,5-a]pyrimidin-3-yl)pyridin-2-yl)-2-methoxybenzoate]: 1 to 100 nM and 5000 to 15000 nM.
Take `COc1ccc(-c2ccc(-c3cnn4c(N)c(C(C)=O)c(C5CCC(O)(CO)CC5)nc34)cn2)cc1C(=O)O` (stereo not shown) [Compound 155, 5-(5-(6-acetyl-7-amino-5-(4-hydroxy-4-(hydroxymethyl)-cyclohexyl)-pyrazolo-[1,5-a]pyrimidin-3-yl)pyridin-2-yl)-2-methoxybenzoic acid]: the half-inhibitory concentration (IC50) on human mTOR enzyme (rated class) was 1 to 100 nM; in assay [1] (setting [3]), 5000 to 15000 nM.
Take `CC(=O)c1c(C2CCC(O)(CO)CC2)nc2c(-c3ccc(-c4cncs4)nc3)cnn2c1N` (stereo not shown) [Compound 157, 1-(7-amino-5-(4-hydroxy-4-(hydroxymethyl)-cyclohexyl)-3-(6-(thiazol-5-yl)pyridin-3-yl)pyrazolo[1,5-a]pyrimidin-6-yl)ethanone]: the results for the IC50 (on human mTOR enzyme (rated class); in assay [1] (setting [3])) were 1 to 100 nM and 2000 to 5000 nM, respectively.
`CC(=O)c1c(N)n2ncc(-c3ccc(-c4ccccc4)nc3)c2nc1[C@H]1CC[C@](O)(CCO)CC1` [Compound 159, 1-(7-amino-5-((1S,4S)-4-hydroxy-4-(2-hydroxyethyl)-cyclohexyl)-3-(6-phenylpyridin-3-yl)pyrazolo[1,5-a]pyrimidin-6-yl)ethanone]: the half-inhibitory concentration (IC50) (on human mTOR enzyme (rated class); in assay [1] (setting [3])) was 1 to 100 nM throughout.
Take `COC[C@]1(O)CC[C@@H](c2nc3c(-c4ccc(-c5ccccc5)nc4)cnn3c(N)c2Br)CC1` [Compound 164, (1S,4S)-4-(7-amino-6-bromo-3-(6-phenylpyridin-3-yl)pyrazolo[1,5-a]pyrimidin-5-yl)-1-(methoxymethyl)cyclohexanol]: the concentration for half-maximal inhibition (IC50) at human mTOR enzyme (rated class) fell in the range of 1 to 100 nM; in assay [1] (setting [3]), 1000 to 2000 nM.
For the compound `COCC1(O)CCC(c2nc3c(-c4cnc5ccc(F)cc5c4)cnn3c(N)c2Br)CC1` (stereo not shown) [Compound 165, 4-(7-amino-6-bromo-3-(6-fluoroquinolin-3-yl)pyrazolo[1,5-a]pyrimidin-5-yl)-1-(methoxymethyl)cyclohexanol], the half-inhibitory concentration (IC50) on human mTOR enzyme (rated class) is 1 to 100 nM; in assay [1] (setting [3]), 1000 to 2000 nM.
Turning to `COCCOC[C@]1(CO)CC[C@H](c2nc3c(-c4ccc(-c5ccccc5)nc4)cnn3c(N)c2Br)CC1` [Compound 168, ((1S,4S)-4-(7-amino-6-bromo-3-(6-phenylpyridin-3-yl)pyrazolo[1,5-a]pyrimidin-5-yl)-1-((2-methoxyethoxy)-methyl)cyclohexyl)-methanol], the half-maximal inhibitory concentration (IC50) on human mTOR enzyme (rated class) was 1 to 100 nM; in assay [1] (setting [3]), 1000 to 2000 nM.
For `COCCOC[C@]1(CO)CC[C@@H](c2nc3c(-c4ccc(-c5ccccc5)nc4)cnn3c(N)c2Br)CC1` [Compound 169, ((1R,4R)-4-(7-amino-6-bromo-3-(6-phenylpyridin-3-yl)pyrazolo[1,5-a]pyrimidin-5-yl)-1-((2-methoxyethoxy)-methyl)cyclohexyl)-methanol], the 50% inhibitory concentration (IC50) at human mTOR enzyme (rated class) fell in the range of 1 to 100 nM; in assay [1] (setting [3]), 2000 to 5000 nM.
For `COCC1(CO)CCC(c2nc3c(-c4ccc(-c5ccccc5)nc4)cnn3c(N)c2C(C)=O)CC1` (stereo not shown) [Compound 170, 1-(7-amino-5-(4-(hydroxymethyl)-4-(methoxymethyl)-cyclohexyl)-3-(6-phenylpyridin-3-yl)pyrazolo[1,5-a]pyrimidin-6-yl)ethanone], the half-maximal inhibitory concentration (IC50) on human mTOR enzyme (rated class) was in the range of 1 to 100 nM; in assay [1] (setting [3]), 1000 to 2000 nM.
`COc1ccc(-c2ccc(-c3cnn4c(N)c(C(C)=O)c(C5CCC(CO)(OC)CC5)nc34)cn2)cn1` (stereo not shown) [Compound 171, 1-(7-amino-5-(4-(hydroxymethyl)-4-methoxycyclohexyl)-3-(6′-methoxy-2,3′-bipyridin-5-yl)pyrazolo[1,5-a]pyrimidin-6-yl)ethanone]: the IC50 on human mTOR enzyme (rated class) was 1 to 100 nM; in assay [1] (setting [3]), 2000 to 5000 nM.
The matching figures for `CC(=O)c1c(C2CCC(CO)(CO)CC2)nc2c(-c3ccc(-c4ccccc4)nc3)cnn2c1N` [Compound 172, 1-(7-amino-5-(4,4-bis(hydroxymethyl)-cyclohexyl)-3-(6-phenylpyridin-3-yl)pyrazolo[1,5-a]pyrimidin-6-yl)ethanone]: 1 to 100 nM and 1 to 100 nM.

Usually IC50 stands for the midpoint of a concentration-inhibition curve.

The values are drawn from US8883801B2, “Substituted pyrazolo[1,5-a]pyrimidines as mTOR inhibitors” (Merck Sharp & Dohme Corp., priority 2010, dated 2014).
